From ChEMBL document CHEMBL1201862, “PubChem BioAssay data set” (2004)
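Each compound was tested at five concentrations against cells in 96-well plates for 48 hours. GI50 marks 50% less growth.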 Activity calls are given as the source filed them. Cut-off read from the data, not from the text of the source: active = GI50 up to about 1.1 µM and inactive = higher.

Experiments:
Test in all cases: DTP human tumour cell line panel, 48 h
SF-268 = system: SF-268
LOX IMVI = system: LOX IMVI
MCF7 = system: MCF7
OVCAR-4 = system: OVCAR-4
EKVX = system: EKVX
SK-MEL-28 = system: SK-MEL-28
NCI-H23 = system: NCI-H23
NCI-H522 = system: NCI-H522
OVCAR-3 = system: OVCAR-3
UACC-62 = system: UACC-62
SN12C = system: SN12C
MDA-MB-231 = system: MDA-MB-231
BT-549 = system: BT-549
NCI-H460 = system: NCI-H460
RXF 393 = system: RXF 393
HL-60 = system: HL-60
HOP-92 = system: HOP-92
SK-OV-3 = system: SK-OV-3
SK-MEL-2 = system: SK-MEL-2
NCI/ADR-RES = system: NCI/ADR-RES
HCC 2998 = system: HCC 2998
OVCAR-8 = system: OVCAR-8
A498 = system: A498
KM12 = system: KM12
SF-295 = system: SF-295
ACHN = system: ACHN
PC-3 = system: PC-3
SK-MEL-5 = system: SK-MEL-5
MDA-MB-435 = system: MDA-MB-435
SNB-19 = system: SNB-19
SW-620 = system: SW-620
MOLT-4 = system: MOLT-4
Hs-578T = system: Hs-578T
CAKI-1 = system: CAKI-1
SNB-75 = system: SNB-75
HT-29 = system: HT-29
HCT-116 = system: HCT-116
HOP-62 = system: HOP-62
TK-10 = system: TK-10
RPMI-8226 = system: RPMI-8226
UO-31 = system: UO-31
M14 = system: M14
DU-145 = system: DU-145
UACC-257 = system: UACC-257
U-251 = system: U-251
HCT-15 = system: HCT-15
786-0 = system: 786-0
OVCAR-5 = system: OVCAR-5
SF-539 = system: SF-539
T47D = system: T47D
IGROV-1 = system: IGROV-1
SR = system: SR
MDA-N = system: MDA-N
COLO 205 = system: COLO 205
A549 = system: A549
NCI-H226 = system: NCI-H226
K562 = system: K562
Malme-3M = system: Malme-3M
CCRF-CEM = system: CCRF-CEM

SMILES: O=C1NC2(CN3CCC2CC3)C(=O)N1CN(Cc1ccccc1)c1ccccc1 (stereo not drawn)
- GI50 (SF-268): 37.6 µM (inactive)
- GI50 (LOX IMVI): 35.2 µM (inactive)
- GI50 (MCF7): 47.9 µM (inactive)
- GI50 (OVCAR-4): > 100 µM (inactive)
- GI50 (EKVX): > 100 µM (inactive)
- GI50 (SK-MEL-28): > 100 µM (inactive)
- GI50 (NCI-H23): 44.4 µM (inactive)
- GI50 (NCI-H522): 94.6 µM (inactive)
- GI50 (OVCAR-3): > 100 µM (inactive)
- GI50 (UACC-62): > 100 µM (inactive)
- GI50 (SN12C): 71 µM (inactive)
- GI50 (MDA-MB-231): > 100 µM (inactive)
- GI50 (BT-549): > 100 µM (inactive)
- GI50 (NCI-H460): 29.4 µM (inactive)
- GI50 (RXF 393): 27 µM (inactive)
- GI50 (HL-60): 21.1 µM (inactive)
- GI50 (HOP-92): > 100 µM (inactive)
- GI50 (SK-OV-3): > 100 µM (inactive)
- GI50 (SK-MEL-2): > 100 µM (inactive)
- GI50 (NCI/ADR-RES): > 100 µM (inactive)
- GI50 (HCC 2998): 39.6 µM (inactive)
- GI50 (OVCAR-8): 57 µM (inactive)
- GI50 (A498): > 100 µM (inactive)
- GI50 (KM12): > 100 µM (inactive)
- GI50 (SF-295): > 100 µM (inactive)
- GI50 (ACHN): 72.8 µM (inactive)
- GI50 (PC-3): > 100 µM (inactive)
- GI50 (SK-MEL-5): 85.7 µM (inactive)
- GI50 (MDA-MB-435): > 100 µM (inactive)
- GI50 (SNB-19): > 100 µM (inactive)
- GI50 (SW-620): 31.7 µM (inactive)
- GI50 (MOLT-4): 68.7 µM (inactive)
- GI50 (Hs-578T): > 100 µM (inactive)
- GI50 (CAKI-1): > 100 µM (inactive)
- GI50 (SNB-75): > 100 µM (inactive)
- GI50 (HT-29): 56.6 µM (inactive)
- GI50 (HCT-116): > 100 µM (inactive)
- GI50 (HOP-62): > 100 µM (inactive)
- GI50 (TK-10): > 100 µM (inactive)
- GI50 (RPMI-8226): 28.2 µM (inactive)
- GI50 (UO-31): 25.1 µM (inactive)
- GI50 (M14): 33.7 µM (inactive)
- GI50 (DU-145): 48.4 µM (inactive)
- GI50 (UACC-257): 46 µM (inactive)
- GI50 (U-251): > 100 µM (inactive)
- GI50 (HCT-15): 41.2 µM
- GI50 (786-0): > 100 µM (inactive)
- GI50 (OVCAR-5): > 100 µM (inactive)
- GI50 (SF-539): 93.8 µM (inactive)
- GI50 (T47D): 39 µM (inactive)
- GI50 (IGROV-1): > 100 µM (inactive)
- GI50 (SR): 25.3 µM (inactive)
- GI50 (MDA-N): > 100 µM (inactive)
- GI50 (COLO 205): 92.7 µM (inactive)
- GI50 (A549): 81.1 µM (inactive)
- GI50 (NCI-H226): > 100 µM (inactive)

SMILES: COc1ccccc1C[C@@H]1OC2(C=CC(=O)C=C2)O[C@H]1Cc1ccccc1OC
- GI50 (SF-268): 7.35 µM (inactive)
- GI50 (K562): 11.5 µM (inactive)
- GI50 (LOX IMVI): 6.14 µM (inactive)
- GI50 (MCF7): 3.96 µM (inactive)
- GI50 (OVCAR-4): 8.38 µM (inactive)
- GI50 (EKVX): 5.65 µM (inactive)
- GI50 (SK-MEL-28): 8.81 µM (inactive)
- GI50 (NCI-H23): 8.75 µM (inactive)
- GI50 (Malme-3M): 9.71 µM (inactive)
- GI50 (OVCAR-3): 8.09 µM (inactive)
- GI50 (UACC-62): 10.3 µM (inactive)
- GI50 (SN12C): 9.64 µM (inactive)
- GI50 (MDA-MB-231): 13.8 µM (inactive)
- GI50 (BT-549): 2.64 µM (inactive)
- GI50 (NCI-H460): 23 µM (inactive)
- GI50 (RXF 393): 1.16 µM (inactive)
- GI50 (HL-60): 7.43 µM (inactive)
- GI50 (HOP-92): 9.55 µM (inactive)
- GI50 (SK-OV-3): 11.4 µM (inactive)
- GI50 (SK-MEL-2): 9.29 µM (inactive)
- GI50 (NCI/ADR-RES): 8.38 µM (inactive)
- GI50 (OVCAR-8): 1.27 µM (inactive)
- GI50 (A498): 16.9 µM (inactive)
- GI50 (KM12): 8.69 µM (inactive)
- GI50 (SF-295): 11 µM (inactive)
- GI50 (ACHN): 7.89 µM (inactive)
- GI50 (PC-3): 8.69 µM (inactive)
- GI50 (SK-MEL-5): 8.99 µM (inactive)
- GI50 (MDA-MB-435): 14.3 µM (inactive)
- GI50 (SNB-19): 9.95 µM (inactive)
- GI50 (SW-620): 1.79 µM (inactive)
- GI50 (MOLT-4): 2.04 µM (inactive)
- GI50 (Hs-578T): 10 µM (inactive)
- GI50 (CCRF-CEM): 3.33 µM (inactive)
- GI50 (CAKI-1): 10.3 µM (inactive)
- GI50 (SNB-75): 9.04 µM (inactive)
- GI50 (HT-29): 9.02 µM (inactive)
- GI50 (HCT-116): 1.09 µM (active)
- GI50 (HOP-62): 7.4 µM (inactive)
- GI50 (TK-10): 9.06 µM (inactive)
- GI50 (RPMI-8226): 1.71 µM (inactive)
- GI50 (UO-31): 6.35 µM (inactive)
- GI50 (M14): 7.5 µM (inactive)
- GI50 (DU-145): 18.4 µM (inactive)
- GI50 (UACC-257): 8.11 µM (inactive)
- GI50 (U-251): 10.2 µM (inactive)
- GI50 (HCT-15): 5.21 µM
- GI50 (786-0): 1.39 µM (inactive)
- GI50 (OVCAR-5): 8.43 µM (inactive)
- GI50 (SF-539): 8.75 µM (inactive)
- GI50 (T47D): 19.2 µM (inactive)
- GI50 (IGROV-1): 6.75 µM (inactive)
- GI50 (SR): 1.78 µM (inactive)
- GI50 (MDA-N): 6 µM (inactive)
- GI50 (COLO 205): 8.11 µM (inactive)
- GI50 (A549): 21.7 µM (inactive)
- GI50 (NCI-H226): 8.47 µM (inactive)
